Some results are limits rather than exact numbers.

In one assay the target is T1, human NaDC3 (SLC13A3) (Homo sapiens, UniProt Q8WWT9).
T1 construct: expressed in transfected cells; host or cells: HEK293 (HEK-NaDC3), hygromycin selection
T1 sequence (Q8WWT9 1-602): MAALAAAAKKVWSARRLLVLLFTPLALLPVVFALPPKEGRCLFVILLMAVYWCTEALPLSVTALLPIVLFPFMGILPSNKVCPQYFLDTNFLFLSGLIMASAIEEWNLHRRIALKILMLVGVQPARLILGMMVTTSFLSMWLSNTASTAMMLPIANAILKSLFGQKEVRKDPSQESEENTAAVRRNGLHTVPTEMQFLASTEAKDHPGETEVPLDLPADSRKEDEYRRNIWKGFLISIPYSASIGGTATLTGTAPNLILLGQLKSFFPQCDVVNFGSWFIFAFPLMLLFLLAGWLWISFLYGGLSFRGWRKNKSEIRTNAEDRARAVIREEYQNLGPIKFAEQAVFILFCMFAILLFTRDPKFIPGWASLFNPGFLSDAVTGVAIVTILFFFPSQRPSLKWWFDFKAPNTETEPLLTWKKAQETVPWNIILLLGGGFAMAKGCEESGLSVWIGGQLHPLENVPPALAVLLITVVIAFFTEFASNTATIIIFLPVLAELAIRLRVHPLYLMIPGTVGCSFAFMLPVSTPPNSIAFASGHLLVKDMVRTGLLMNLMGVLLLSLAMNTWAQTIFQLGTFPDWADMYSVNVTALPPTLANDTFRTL
Nature of the assay: [14C] succinate uptake in HEK293 cells overexpressing human NaDC3. Format: cell-based. The text has this: We obtained the compound by screening a library containing more than 50,000 highly diverse lead-like compounds from the Evotec Discovery Library (Evotec SE) and progressing initial hit-through-hit expansion and hit-to-lead optimisation phases. Compound library details are described under https://www.evotec.com/en/execute/drug-discovery-services/hit-identification (accessed on 5 August 2022). We used [14C] citrate uptake assays with HEK293 cells overexpressing recombinant human NaCT (HEK-NaCT). For confirmation, we measured citrate uptake using HepG2 cells which endogenously express NaCT. Furthermore, we measured activity on mouse Nact in a similar assay system using HEK293 cells recombinantly expressing murine Nact (HEK-Nact). We then tested the selectivity of selected compounds with another transporter of the same family—NaDC3. Selectivity was determined by a succinate uptake assay for NaDC3 using HepG2 cells or using HEK293 cells overexpressing recombinant human NaDC3.
For radiometric [14C] succinate uptake assays, we applied HEK cells overexpressing human NaDC3 and measured according to the procedure described previously, with a modified incubation buffer of HBSS buffer, supplemented with 20 mM HEPES, pH 7.4 and positive control 2,2-Dimethylsuccinic acid (Sigma-Aldrich, St. Louis, MO, USA).

The next assay concerns DIO mice. Nature of the assay: 7-day treatment of diet-induced obesity (DIO) mice. Format: in vivo, mouse. The settings on record: 15 mg/kg twice daily, 7 days. On the procedure:
We performed in vivo testing in DIO mice (for 7- and 28-day treatment), an established model designed to study high-fat-diet-induced hepatic steatosis and associated cardiometabolic traits. We established DIO in four-week-old C57BL/6N male mice that were fed a high-fat diet (HFD, 60 kcal% fat, D12492; Research Diets, Inc.; New Brunswick, NJ, USA) until 11 weeks of age.
Mice were housed at a temperature of 22–24 °C, with a day/night cycle of 12/12 h (07:00-19:00–07:00) and had access to the appropriate diet and tap water ad libitum. Animals allocated to the pair-feeding group were fed the same amount of food as the corresponding treatment group had consumed the day before. Food was only withdrawn for overnight fasting on the penultimate study day before the section on the final day. We randomised groups of n = 12 for treatment and n = 8 for pair-feeding cage-wise according to random fed blood glucose levels and body weight before the study treatment was started. For all animals, the high-fat diet was started at the same age.
We treated DIO mice with the inhibitor or corresponding vehicle (5% DMSO/10% Cremophor® EL/85% water) twice a day at the same time by oral gavage according to their grouping (5, 15, and 50 mg/kg dose groups, and vehicle control groups). During the study, we measured body weight and blood glucose. We measured glucose concentrations in tail tip blood samples with the “Accu-Chek® Performa” glucometer (Roche, Basel, Switzerland, range <33.3 mmol/L). We determined random fed blood glucose and fasting blood glucose after overnight fasting.
We determined serum beta-hydroxybutyrate with a Beta-Hydroxybutyrate Assay kit, (Sigma-Aldrich, Cat.No. MAK041, St. Louis, MO, USA) following the manufacturer’s instructions. The sample was undiluted, and the volume was 5 µL.
We performed Western blots as described previously. Deviating from that protocol samples were heated for 5 min at 95 °C and blotting time was 1 h at 20 volts. For target protein detection, AMPK alpha (D63G4) Rabbit mAb (Cell Signaling Technology, Inc., Danvers, MA, USA; Cat. No. #5832/3; working dilution 1:1000) and Phospho-AMPK alpha (Thr172) (40H9) Rabbit mAb (Cell Signaling Technology, Inc.; Cat. No. #2535/16; working dilution 1:1000) were used; gel loading was controlled by anti-beta-actin (Sigma-Aldrich, Cat. No. A2228). We detected signals with the SuperSignal West Dura Extended Duration Substrate (Thermo Fisher Scientific; Cat. No. 34076, Waltham, MA, USA).

`O=C(Nc1cc(Cl)cc(C(F)(F)F)c1)OCCC(F)(F)F` [ETG-5773] returned an IC50 against human NaDC3 (SLC13A3) (HEK293 overexpressing human NaDC3, succinate substrate) of more than 20 µM. Moreover, on human NaDC3 (SLC13A3) (NaCT citrate uptake vs NaDC3 succinate uptake), the “Selectivity for NaCT against NaDC3” value is given as “more than 100 fold”. Moreover, the “Liver fat after seven-days treatment” value in the assay with DIO mice is recorded as “not sufficient to significantly reduce liver fat”. Moreover, the “Ratio of phosphorylated AMPK to total AMPK in liver vs both control groups” value in the assay with DIO mice (Western blot, p < 0.01) is recorded as “AMPK activation”. Besides, the “HOMA-IR change vs vehicle” value in the assay with DIO mice (numerically reduced, p = 0.24) is recorded as −95%. For the same compound, the “Fasting serum insulin change vs vehicle” value with DIO mice (numerically reduced, p = 0.4) is given as −91%. In the assay on DIO mice (p < 0.0001), the “Body weight change vs vehicle control” value was −15%, the “Fasting blood glucose change vs vehicle” value was −45% and the “Reduction in fasting blood glucose vs pair-fed vehicle control” value was determined as 36%. Further, in the assay on DIO mice (p < 0.05), the “Reduction in HOMA-IR vs pair-fed vehicle control” value was more than 95% and the “Reduction in fasting serum insulin vs pair-fed vehicle control” value is given as more than 95%.

Source of the values: article PMC9413491, “A Novel and Cross-Species Active Mammalian INDY (NaCT) Inhibitor Ameliorates Hepatic Steatosis in Mice with Diet-Induced Obesity” (Metabolites, 2022).
